# Measured values reported in ChEMBL document CHEMBL1146102, “Synthesis and structure-activity relationship of 3,4'-bispyridinylethylenes: discovery of a potent 3-isoquinolinylpyridine inhibitor of protein kinase B (PKB/Akt) for the treatment of cancer” (Bioorg Med Chem Lett, 2006).
# Experiments:
# [1] = biological target: T1, RAC-alpha serine/threonine-protein kinase (Homo sapiens, UniProt P31749); test: Inhibition of Akt1 at 50 uM
# [2] = biological target: T2, Serine/threonine-protein kinase Chk1 (Homo sapiens, UniProt O14757); test: Inhibition of Chk1 at 10 uM ATP
# T2 sequence (O14757 whole entry): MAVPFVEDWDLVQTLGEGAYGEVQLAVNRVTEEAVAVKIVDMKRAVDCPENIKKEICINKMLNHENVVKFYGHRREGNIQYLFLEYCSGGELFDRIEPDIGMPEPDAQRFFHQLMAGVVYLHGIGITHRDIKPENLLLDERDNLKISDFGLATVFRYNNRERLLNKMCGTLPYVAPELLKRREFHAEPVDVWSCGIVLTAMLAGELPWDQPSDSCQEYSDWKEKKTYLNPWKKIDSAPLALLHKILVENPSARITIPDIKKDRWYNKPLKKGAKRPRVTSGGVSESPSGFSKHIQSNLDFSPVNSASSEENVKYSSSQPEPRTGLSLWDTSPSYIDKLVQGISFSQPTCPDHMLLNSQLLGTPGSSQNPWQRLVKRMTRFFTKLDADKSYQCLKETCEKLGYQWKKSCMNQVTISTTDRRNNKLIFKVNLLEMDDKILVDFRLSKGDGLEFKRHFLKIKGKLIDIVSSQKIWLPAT
# [3] = biological target: RAC-gamma serine/threonine-protein kinase (Homo sapiens, UniProt Q9Y243); test: Inhibition of Akt3 at 10 uM ATP
# RAC-gamma serine/threonine-protein kinase, sequence (Q9Y243 whole entry): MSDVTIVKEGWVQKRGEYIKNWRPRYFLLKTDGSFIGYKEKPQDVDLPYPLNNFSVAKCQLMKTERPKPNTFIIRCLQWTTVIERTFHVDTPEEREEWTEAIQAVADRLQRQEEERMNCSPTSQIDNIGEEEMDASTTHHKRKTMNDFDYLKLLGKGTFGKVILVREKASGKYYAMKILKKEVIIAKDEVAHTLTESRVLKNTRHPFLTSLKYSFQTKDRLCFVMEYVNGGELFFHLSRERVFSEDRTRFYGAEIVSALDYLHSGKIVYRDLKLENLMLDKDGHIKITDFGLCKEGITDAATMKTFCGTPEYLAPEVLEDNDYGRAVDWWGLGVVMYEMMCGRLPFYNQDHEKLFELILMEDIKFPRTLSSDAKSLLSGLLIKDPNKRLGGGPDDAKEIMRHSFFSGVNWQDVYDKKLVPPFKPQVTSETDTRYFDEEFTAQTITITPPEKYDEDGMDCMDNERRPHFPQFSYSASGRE
# [4] = biological target: Protein kinase C delta type (Homo sapiens, UniProt Q05655); test: Inhibition of PKCdelta at 10 uM ATP
# Protein kinase C delta type, sequence (Q05655 whole entry): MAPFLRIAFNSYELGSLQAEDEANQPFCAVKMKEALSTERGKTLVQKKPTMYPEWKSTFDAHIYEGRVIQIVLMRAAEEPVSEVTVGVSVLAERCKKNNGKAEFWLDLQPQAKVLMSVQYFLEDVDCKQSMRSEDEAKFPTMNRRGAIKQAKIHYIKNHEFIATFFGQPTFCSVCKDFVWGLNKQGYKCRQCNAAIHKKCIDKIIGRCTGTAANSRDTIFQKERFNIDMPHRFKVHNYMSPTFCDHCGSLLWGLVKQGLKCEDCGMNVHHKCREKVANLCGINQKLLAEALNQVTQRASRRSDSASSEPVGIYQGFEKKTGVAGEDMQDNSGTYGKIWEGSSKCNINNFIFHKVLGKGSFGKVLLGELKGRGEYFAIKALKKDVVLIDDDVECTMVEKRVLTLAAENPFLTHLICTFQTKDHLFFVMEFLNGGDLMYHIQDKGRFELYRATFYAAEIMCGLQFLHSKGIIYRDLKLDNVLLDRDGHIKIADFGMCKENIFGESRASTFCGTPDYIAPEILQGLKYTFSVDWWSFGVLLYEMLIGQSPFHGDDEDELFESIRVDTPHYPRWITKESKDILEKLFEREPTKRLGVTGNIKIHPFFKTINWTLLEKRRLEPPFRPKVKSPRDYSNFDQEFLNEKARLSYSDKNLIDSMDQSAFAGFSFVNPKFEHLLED
# Casein kinase II = Casein kinase II (Homo sapiens, UniProt P19784+P67870+P68400); test: Inhibition of CK2 at 10 uM ATP; assay type: protein-complex assay
# [5] = biological target: Vascular endothelial growth factor receptor 3 (Homo sapiens, UniProt P35916); test: Inhibition of FLt4 at 1.0 mM ATP
# Vascular endothelial growth factor receptor 3, sequence (P35916 whole entry): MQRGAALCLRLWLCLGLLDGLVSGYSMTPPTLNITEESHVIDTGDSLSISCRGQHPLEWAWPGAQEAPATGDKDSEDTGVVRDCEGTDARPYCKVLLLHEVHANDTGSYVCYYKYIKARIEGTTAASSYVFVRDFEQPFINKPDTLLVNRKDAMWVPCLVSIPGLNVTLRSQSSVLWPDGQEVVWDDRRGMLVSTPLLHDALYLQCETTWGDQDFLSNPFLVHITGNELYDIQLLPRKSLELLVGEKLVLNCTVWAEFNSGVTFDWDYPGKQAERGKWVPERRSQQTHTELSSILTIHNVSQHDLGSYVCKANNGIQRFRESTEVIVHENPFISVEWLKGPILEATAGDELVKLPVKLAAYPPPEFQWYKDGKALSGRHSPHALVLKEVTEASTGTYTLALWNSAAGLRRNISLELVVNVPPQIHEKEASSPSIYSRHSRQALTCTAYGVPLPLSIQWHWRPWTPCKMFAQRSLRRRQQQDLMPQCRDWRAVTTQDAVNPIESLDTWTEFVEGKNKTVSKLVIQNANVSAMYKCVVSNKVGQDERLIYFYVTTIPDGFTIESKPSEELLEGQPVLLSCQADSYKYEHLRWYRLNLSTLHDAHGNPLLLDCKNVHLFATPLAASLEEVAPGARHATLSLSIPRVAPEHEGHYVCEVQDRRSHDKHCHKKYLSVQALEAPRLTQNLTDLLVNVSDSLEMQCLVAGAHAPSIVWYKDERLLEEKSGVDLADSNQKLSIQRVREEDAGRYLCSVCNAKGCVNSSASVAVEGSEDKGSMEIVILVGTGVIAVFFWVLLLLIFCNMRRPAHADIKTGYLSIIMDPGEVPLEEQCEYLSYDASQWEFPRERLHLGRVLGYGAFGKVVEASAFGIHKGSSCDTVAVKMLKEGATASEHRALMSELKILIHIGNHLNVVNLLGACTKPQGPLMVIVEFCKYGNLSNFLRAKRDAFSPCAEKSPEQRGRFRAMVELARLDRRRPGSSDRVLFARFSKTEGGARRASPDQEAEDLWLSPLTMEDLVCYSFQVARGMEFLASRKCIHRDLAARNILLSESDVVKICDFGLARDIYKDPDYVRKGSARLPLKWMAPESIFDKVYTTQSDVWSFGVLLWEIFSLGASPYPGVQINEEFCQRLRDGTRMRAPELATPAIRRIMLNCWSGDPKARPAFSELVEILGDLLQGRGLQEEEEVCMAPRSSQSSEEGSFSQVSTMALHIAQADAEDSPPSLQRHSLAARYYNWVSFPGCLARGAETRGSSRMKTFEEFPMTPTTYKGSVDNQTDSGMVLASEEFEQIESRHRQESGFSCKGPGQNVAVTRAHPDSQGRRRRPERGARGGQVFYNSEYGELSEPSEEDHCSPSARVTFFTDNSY
# [6] = biological target: MAP kinase-activated protein kinase 2 (Homo sapiens, UniProt P49137); test: Inhibition of MAPKAP2 at 10 uM ATP
# MAP kinase-activated protein kinase 2, sequence (P49137 whole entry): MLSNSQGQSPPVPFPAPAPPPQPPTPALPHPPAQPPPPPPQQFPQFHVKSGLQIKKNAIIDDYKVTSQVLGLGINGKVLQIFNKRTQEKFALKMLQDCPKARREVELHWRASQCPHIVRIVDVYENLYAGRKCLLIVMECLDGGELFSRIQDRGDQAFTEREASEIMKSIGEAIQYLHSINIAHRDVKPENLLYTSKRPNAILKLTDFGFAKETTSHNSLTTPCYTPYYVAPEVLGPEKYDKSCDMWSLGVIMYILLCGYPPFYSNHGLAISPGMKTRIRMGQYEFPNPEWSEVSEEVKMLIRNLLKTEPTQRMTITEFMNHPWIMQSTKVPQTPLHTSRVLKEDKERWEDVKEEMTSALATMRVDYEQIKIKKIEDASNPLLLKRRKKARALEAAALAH
# [7] = biological target: Mitogen-activated protein kinase 1 (Homo sapiens, UniProt P28482); test: Inhibition of ERK2 at 10 uM ATP
# [8] = biological target: Protein kinase C gamma type (Homo sapiens, UniProt P05129); test: Inhibition of PKCgamma at 10 uM ATP
# [9] = biological target: Proto-oncogene tyrosine-protein kinase Src (Homo sapiens, UniProt P12931); test: Inhibition of SRC kinase at 1.0 mM ATP
# Proto-oncogene tyrosine-protein kinase Src, sequence (P12931 2-536 limits assumed): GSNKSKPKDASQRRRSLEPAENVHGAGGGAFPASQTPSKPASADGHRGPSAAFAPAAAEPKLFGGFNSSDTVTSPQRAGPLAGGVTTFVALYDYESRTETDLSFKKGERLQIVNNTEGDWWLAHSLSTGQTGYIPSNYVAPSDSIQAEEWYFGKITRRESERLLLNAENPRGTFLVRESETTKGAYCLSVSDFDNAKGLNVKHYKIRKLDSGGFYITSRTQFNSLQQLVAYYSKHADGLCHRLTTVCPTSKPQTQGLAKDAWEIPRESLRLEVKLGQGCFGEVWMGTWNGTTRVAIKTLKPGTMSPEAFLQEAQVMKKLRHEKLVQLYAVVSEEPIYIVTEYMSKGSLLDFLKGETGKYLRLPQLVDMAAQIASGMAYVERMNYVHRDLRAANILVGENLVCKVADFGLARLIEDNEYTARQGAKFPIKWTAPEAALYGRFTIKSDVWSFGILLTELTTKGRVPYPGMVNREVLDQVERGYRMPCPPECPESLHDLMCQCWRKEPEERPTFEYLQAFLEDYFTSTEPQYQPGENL
# [10] = biological target: Cyclin-dependent kinase 1 (Homo sapiens, UniProt P06493); test: Inhibition of CDK1 at 10 uM ATP
# Cyclin-dependent kinase 1, sequence (P06493 whole entry): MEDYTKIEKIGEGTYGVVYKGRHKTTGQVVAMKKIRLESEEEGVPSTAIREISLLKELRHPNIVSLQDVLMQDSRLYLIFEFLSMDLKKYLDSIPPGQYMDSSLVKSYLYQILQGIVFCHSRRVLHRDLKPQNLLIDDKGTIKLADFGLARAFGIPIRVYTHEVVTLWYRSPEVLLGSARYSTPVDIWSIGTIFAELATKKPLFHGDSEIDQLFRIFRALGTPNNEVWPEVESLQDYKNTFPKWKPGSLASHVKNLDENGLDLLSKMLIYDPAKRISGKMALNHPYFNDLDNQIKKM
# [11] = biological target: T1, RAC-alpha serine/threonine-protein kinase; test: Activity against GSK3 phosphorylation in FL5.12-Akt1 cells; assay type: functional, cell-based
# T1 sequence (P31749 whole entry): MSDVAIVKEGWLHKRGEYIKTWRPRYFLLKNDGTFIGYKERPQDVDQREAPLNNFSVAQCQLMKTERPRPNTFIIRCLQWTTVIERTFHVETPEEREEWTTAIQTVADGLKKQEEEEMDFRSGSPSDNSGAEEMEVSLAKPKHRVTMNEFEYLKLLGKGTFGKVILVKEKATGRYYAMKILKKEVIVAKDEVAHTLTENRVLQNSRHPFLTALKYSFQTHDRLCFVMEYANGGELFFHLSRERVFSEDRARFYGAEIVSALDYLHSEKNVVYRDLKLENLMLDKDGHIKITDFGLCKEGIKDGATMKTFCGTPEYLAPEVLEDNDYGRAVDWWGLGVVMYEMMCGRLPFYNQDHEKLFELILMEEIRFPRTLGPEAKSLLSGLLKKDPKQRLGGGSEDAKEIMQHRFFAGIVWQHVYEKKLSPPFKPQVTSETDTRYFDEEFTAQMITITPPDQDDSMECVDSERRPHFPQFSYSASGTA
smiles,measurement,setting,value
N[C@H](COc1cncc(NCc2ccncc2)c1)Cc1ccccc1,inhibition,[1],26%
N[C@H](COc1cncc(-c2ccc([N+](=O)[O-])cc2)c1)Cc1c[nH]c2ccccc12,inhibition,[1],13%
N[C@H](COc1cncc(-c2ccc3cnccc3c2)c1)Cc1c[nH]c2ccccc12,IC50,[2],4.2 µM
same,IC50,[3],35 nM
same,IC50,[4],6.1 µM
same,IC50,Casein kinase II,11.8 µM
same,IC50,[5],> 50 µM
same,IC50,[6],> 50 µM
same,IC50,[7],910 nM
same,IC50,[8],270 nM
same,IC50,[9],> 50 µM
same,IC50,[10],100 nM
same,EC50,[11],1500 nM
N[C@H](COc1cncc(NCc2cccnc2)c1)Cc1ccccc1,inhibition,[1],41%
CC(=O)NCc1ccc(-c2cncc(OC[C@@H](N)Cc3c[nH]c4ccccc34)c2)cc1,inhibition,[1],3%
N[C@H](COc1cncc(-c2ccccc2-c2ccncc2)c1)Cc1c[nH]c2ccccc12,inhibition,[1],10%
N[C@H](COc1cncc(-c2ccc(S(N)(=O)=O)cc2)c1)Cc1c[nH]c2ccccc12,inhibition,[1],12%
N=C(N)c1ccc(-c2cncc(OC[C@@H](N)Cc3c[nH]c4ccccc34)c2)cc1,inhibition,[1],41%
N[C@H](COc1cncc(NC(=O)c2cccnc2)c1)Cc1ccccc1,inhibition,[1],26%
N[C@H](COc1cncc(-c2cccc(S(N)(=O)=O)c2)c1)Cc1c[nH]c2ccccc12,inhibition,[1],0%
N=C(NO)c1ccc(-c2cncc(OC[C@@H](N)Cc3c[nH]c4ccccc34)c2)cc1,inhibition,[1],48%
